Article PMC4844176 (Xenobiotica; the fate of foreign compounds in biological …, 2015)
≈ marks a conversion by molar mass, not a printed value. Where two headings read alike, the source gives them in different places.

Experiments:
[1] = test system: human liver microsomes (HLM); type: in vitro ADME; conditions: pooled HLM; Km not shown
UGT1A1 = biological target: T1, UGT1A1 (Homo sapiens, UniProt P22309); assay: Screening for aprepitant glucuronidation, UGT1A1 Supersomes; type: in vitro ADME; conditions: UGT1A1, 5 and 250 µM aprepitant
T1 sequence (P22309 26-533): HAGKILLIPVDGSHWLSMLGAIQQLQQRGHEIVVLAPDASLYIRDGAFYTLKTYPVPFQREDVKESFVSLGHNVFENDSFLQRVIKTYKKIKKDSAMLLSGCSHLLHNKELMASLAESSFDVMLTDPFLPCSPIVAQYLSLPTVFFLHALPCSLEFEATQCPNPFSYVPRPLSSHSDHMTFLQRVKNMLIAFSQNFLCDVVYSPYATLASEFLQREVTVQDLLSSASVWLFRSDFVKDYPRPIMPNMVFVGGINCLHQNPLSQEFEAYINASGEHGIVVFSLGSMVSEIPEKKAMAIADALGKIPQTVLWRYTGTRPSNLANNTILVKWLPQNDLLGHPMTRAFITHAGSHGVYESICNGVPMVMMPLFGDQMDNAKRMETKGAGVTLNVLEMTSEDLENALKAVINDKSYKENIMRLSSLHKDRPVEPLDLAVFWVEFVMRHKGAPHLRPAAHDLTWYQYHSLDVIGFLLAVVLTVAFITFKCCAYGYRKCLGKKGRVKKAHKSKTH

UGT2B15 = biological target: T2, UGT2B15 (Homo sapiens, UniProt P54855); assay: Screening for aprepitant glucuronidation, UGT2B15 Supersomes; type: in vitro ADME; conditions: UGT2B15, 5 and 250 µM aprepitant
T2 sequence (P54855 24-530): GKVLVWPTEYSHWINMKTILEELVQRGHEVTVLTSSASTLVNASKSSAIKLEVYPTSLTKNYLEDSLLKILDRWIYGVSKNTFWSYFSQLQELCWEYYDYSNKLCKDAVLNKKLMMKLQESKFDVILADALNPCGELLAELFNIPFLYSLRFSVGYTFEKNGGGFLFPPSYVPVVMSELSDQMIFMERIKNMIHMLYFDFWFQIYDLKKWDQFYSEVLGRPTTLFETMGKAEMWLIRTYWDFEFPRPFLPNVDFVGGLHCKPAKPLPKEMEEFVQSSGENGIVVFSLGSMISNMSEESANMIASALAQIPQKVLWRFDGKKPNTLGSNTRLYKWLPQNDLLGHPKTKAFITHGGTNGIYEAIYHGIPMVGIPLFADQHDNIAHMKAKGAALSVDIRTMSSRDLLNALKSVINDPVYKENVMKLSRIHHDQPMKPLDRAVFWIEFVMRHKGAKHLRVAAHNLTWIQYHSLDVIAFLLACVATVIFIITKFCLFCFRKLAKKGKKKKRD

UGT2B17 = biological target: T3, UGT2B17 (Homo sapiens, UniProt O75795); assay: Screening for aprepitant glucuronidation, UGT2B17 Supersomes; type: in vitro ADME; conditions: UGT2B17, 5 and 250 µM aprepitant
T3 sequence (O75795 24-530): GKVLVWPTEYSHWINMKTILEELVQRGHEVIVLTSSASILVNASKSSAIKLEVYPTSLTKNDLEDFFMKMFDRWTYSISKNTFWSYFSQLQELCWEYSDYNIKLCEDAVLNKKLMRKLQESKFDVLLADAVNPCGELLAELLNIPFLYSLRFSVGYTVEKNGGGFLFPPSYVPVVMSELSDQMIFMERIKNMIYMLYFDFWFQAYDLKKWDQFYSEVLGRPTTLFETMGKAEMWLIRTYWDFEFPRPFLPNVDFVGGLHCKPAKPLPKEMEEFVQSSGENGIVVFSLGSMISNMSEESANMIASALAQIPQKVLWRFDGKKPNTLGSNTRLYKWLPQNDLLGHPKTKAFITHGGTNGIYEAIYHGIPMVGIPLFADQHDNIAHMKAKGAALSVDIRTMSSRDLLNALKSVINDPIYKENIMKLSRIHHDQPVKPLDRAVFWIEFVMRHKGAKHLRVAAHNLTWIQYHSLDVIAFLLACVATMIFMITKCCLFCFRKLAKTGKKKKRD

[2] = Aqueous solubility of aprepitant; type: physicochemical; conditions: aqueous medium
UGT1A3 = biological target: T4, UGT1A3 (Homo sapiens, UniProt P35503); conditions: pH 7.5; for velocity of AP-G formation: 60 min
T4 sequence (P35503 29-534): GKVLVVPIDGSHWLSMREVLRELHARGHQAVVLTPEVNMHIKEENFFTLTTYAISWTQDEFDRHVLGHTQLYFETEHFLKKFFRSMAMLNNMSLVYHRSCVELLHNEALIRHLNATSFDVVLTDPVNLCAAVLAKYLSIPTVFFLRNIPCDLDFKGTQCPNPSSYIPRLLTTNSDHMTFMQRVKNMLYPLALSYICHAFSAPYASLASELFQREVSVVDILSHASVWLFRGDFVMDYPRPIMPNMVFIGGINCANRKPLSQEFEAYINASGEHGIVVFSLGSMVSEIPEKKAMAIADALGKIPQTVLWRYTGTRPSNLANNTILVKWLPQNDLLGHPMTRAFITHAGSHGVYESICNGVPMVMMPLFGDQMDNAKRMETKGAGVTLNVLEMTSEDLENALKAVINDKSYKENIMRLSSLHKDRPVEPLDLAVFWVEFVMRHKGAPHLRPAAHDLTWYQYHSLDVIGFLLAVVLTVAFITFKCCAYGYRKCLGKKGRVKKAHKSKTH

UGT1A4 = biological target: T5, UGT1A4 (Homo sapiens, UniProt P22310); conditions: pH 7.5; for velocity of AP-G formation: 60 min
T5 sequence (P22310 29-534): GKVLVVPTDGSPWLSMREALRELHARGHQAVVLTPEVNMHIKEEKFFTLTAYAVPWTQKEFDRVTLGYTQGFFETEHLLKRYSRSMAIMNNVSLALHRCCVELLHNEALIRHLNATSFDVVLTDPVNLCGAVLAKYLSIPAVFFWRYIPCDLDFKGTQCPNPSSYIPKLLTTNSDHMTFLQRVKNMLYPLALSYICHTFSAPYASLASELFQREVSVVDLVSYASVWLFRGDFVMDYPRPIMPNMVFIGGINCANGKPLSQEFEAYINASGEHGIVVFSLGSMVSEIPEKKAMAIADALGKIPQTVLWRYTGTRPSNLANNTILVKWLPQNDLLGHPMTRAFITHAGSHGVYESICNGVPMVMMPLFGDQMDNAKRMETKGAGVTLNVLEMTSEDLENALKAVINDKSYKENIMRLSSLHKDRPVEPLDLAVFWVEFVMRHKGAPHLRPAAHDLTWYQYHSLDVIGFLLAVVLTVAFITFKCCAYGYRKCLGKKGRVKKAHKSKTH

[3] = ref Lasseter et al., 2007, Takahashi et al., 2011; cited from earlier work

- AP-G formation (UGT1A1): not detected
- AP-G formation (UGT2B15): not detected
- AP-G formation (UGT2B17): not detected
- solubility [2]: ~250 µM (≈ 134 µg/mL)
- velocity of AP-G formation (UGT1A3; 5 µM): 44.1 ± 0.7 fmol/min/mg protein
- velocity of AP-G formation (UGT1A3; 250 µM): 717.3 ± 18.6 fmol/min/mg protein
- CLint (UGT1A3; recombinant enzyme): 15 µl/min/µg protein
- velocity of AP-G formation (UGT1A4; 5 µM): 124.6 ± 6.4 fmol/min/mg protein
- velocity of AP-G formation (UGT1A4; 250 µM): 2,710 ± 157.2 fmol/min/mg protein
- CLint (UGT1A4; recombinant enzyme): 28 µl/min/µg protein
Compound: C[C@@H](O[C@H]1OCCN(Cc2n[nH]c(=O)[nH]2)[C@H]1c1ccc(F)cc1)c1cc(C(F)(F)F)cc(C(F)(F)F)c1 [aprepitant, Aprepitant]
- shape of velocity curve (kinetics) [1]: biphasic shape
- systemic circulation concentration in patients [3]: approximately 5 µM
